Results on 37 compounds are retold here after patent US10383880B2 (Reset Therapeutics, Inc., priority 2012, dated 2019).

For this assay, the system named is Per2-dLuc U2OS reporter cells. Nature of the assay: Per2 assay for evaluating the potency of test compounds (high-throughput circadian assay). The following applies: Homo sapiens, U2OS, stable U2OS reporter cells harboring Per2-dLuc; luminescence monitored over 4-5 days at 35° C. The assay is classed as cell-based. The procedure:
Compounds were screened by using a high-throughput circadian assay system as previously described in Zhang, E. E. et al. Cell, 2009, 139, 199-210. In brief, stable U2OS reporter cells harboring Per2-dLuc were plated at a density of 8,000 cells/well in Corning 96-well, solid white, flat bottom, TC-treated microplates (Corning®), and incubated for 24 hours at 37° C. in the presence of 5% CO2. The cells were then synchronized by serum shock by media exchange to a minimal explant media (10 mM HEPES (pH 7.0), 2% B27, 1×PSG (Invitrogen®), and 1.0 mM beetle luciferin (Promega®)) followed by the addition of the compounds of formula I dissolved in dimethylsulfoxide (0.5% final dimethylsulfoxide concentration). Gene expression was monitored by measuring luminescence (TecanR M200) over 4-5 days at 35° C. The period, amplitude, and phase of the associated circadian rhythms were determined using Multicycle™ software (Actimetrics, Inc). EC50 values of the compounds of formula I were calculated using Graphpad™ (Prism®).
`CS(=O)(=O)N(CC(O)Cn1c2ccccc2c2ccccc21)c1ccccc1Cl` (stereo not shown) [Compound 77, N-(3-(9H-Carbazol-9-yl)-2-hydroxypropyl)-N-(2-chlorophenyl)methanesulfonamide] came in with an EC50 of 750 nM.
With `O=S(=O)(CC1CCCO1)N(Cc1ccco1)CC(O)Cn1c2ccccc2c2ccccc21` (stereo not shown) [Compound 19, N-(3-(9H-Carbazol-9-yl)-2-hydroxypropyl)-N-(furan-2-ylmethyl)-1-(tetrahydrofuran-2-yl)methanesulfonamide] the figure was 2100 nM.
Next, `CS(=O)(=O)N(CC(O)Cn1c2ccccc2c2ccccc21)c1ccc(Cl)cc1` (stereo not shown) [Compound 22, N-(3-(9H-Carbazol-9-yl)-2-hydroxypropyl)-N-(4-chlorophenyl)methanesulfonamide]: 510 nM; `O=S(=O)(C1CCCCC1)N(Cc1ccco1)CC(O)Cn1c2ccccc2c2ccccc21` (stereo not shown) [Compound 84, N-(3-(9H-Carbazol-9-yl)-2-hydroxypropyl)-N-(furan-2-ylmethyl)cyclohexanesulfonamide]: 892 nM.
Next, `CS(=O)(=O)N(Cc1ccc(F)cc1)CC(O)Cn1c2ccccc2c2ccccc21` (stereo not shown) [Compound 60, N-(3-(9H-Carbazol-9-yl)-2-hydroxypropyl)-N-(4-fluorobenzyl)methanesulfonamide]: 1220 nM; `CC(O)(CN1CCCCS1(=O)=O)Cn1c2ccc(F)cc2c2cc(F)ccc21` (stereo not shown) [Compound 116, 2-(3-(3,6-Difluoro-9H-carbazol-9-yl)-2-hydroxy-2-methylpropyl)-1,2-thiazinane 1,1-dioxide]: 540 nM.
The compound `O=S1(=O)N(CC(O)Cn2c3ccc(F)cc3c3cc(F)ccc32)CCN1C1CCC1` (stereo not shown) [Compound 234] registered a concentration giving a half-maximal response (EC50) of 289 nM.
With `CS(=O)(=O)N(CC(O)Cn1c2ccc(F)cc2c2cc(F)ccc21)c1ccc(-c2cc[nH]n2)cc1` (stereo not shown) [Compound 214, N-(4-(1H-Pyrazol-3-yl)phenyl)-N-(3-(3,6-difluoro-9H-carbazol-9-yl)-2-hydroxypropyl)methanesulfonamide] the figure was 6560 nM.
The compound `CC(CN(CC(O)Cn1c2ccccc2c2ccccc21)S(C)(=O)=O)c1ccccc1` (stereo not shown) [Compound 70, N-(3-(9H-Carbazol-9-yl)-2-hydroxypropyl)-N-(2-phenylpropyl)methanesulfonamide] displayed an EC50 of 8970 nM.
Compound `CC1(C)CC1N(CC(O)Cn1c2ccccc2c2ccccc21)S(C)(=O)=O` (stereo not shown) [Compound 132, N-(3-(9H-Carbazol-9-yl)-2-hydroxypropyl)-N-(2,2-dimethylcyclopropyl)methanesulfonamide] displayed an EC50 of 348 nM.
`CCOCc1ccc(N(CC(O)Cn2c3ccc(F)cc3c3cc(F)ccc32)S(C)(=O)=O)cc1` (stereo not shown) [Compound 208, N-(3-(3,6-Difluoro-9H-carbazol-9-yl)-2-hydroxypropyl)-N-(4-(ethoxymethyl)phenyl)methanesulfonamide] displayed an EC50 of 4710 nM.
With `CC(C)CN(CC(O)Cn1c2ccccc2c2ccccc21)S(C)(=O)=O` (stereo not shown) [Compound 49, N-(3-(9H-Carbazol-9-yl)-2-hydroxypropyl)-N-isobutylmethanesulfonamide] the figure was 100 nM.
Next, `O=S1(=O)NCCCN1CC(O)Cn1c2ccc(F)cc2c2cc(F)ccc21` (stereo not shown) [Compound 171, 2-(3-(3,6-Difluoro-9H-carbazol-9-yl)-2-hydroxypropyl)-1,2,6-thiadiazinane-1,1-dioxide]: 25 nM; `CS(=O)(=O)N(CC(O)Cn1c2ccccc2c2ccccc21)c1ccc(Br)cc1` (stereo not shown) [Compound 28, N-(3-(9H-Carbazol-9-yl)-2-hydroxypropyl)-N-(4-bromophenyl)methanesulfonamide]: 2090 nM.
Next, `COC1CN(CC(O)Cn2c3ccc(F)cc3c3cc(F)ccc32)S(=O)(=O)C1` (stereo not shown) [Compound 181, 2-(3-(3,6-Difluoro-9H-carbazol-9-yl)-2-hydroxypropyl)-4-methoxyisothiazolidine-1,1-dioxide]: 174 nM; `Cc1cccc(N(CC(O)Cn2c3ccccc3c3ccccc32)S(C)(=O)=O)c1` (stereo not shown) [Compound 63, N-(3-(9H-Carbazol-9-yl)-2-hydroxypropyl)-N-m-tolylmethanesulfonamide]: 199 nM; `CN1CCCN(CC(O)Cn2c3ccc(F)cc3c3cc(F)ccc32)S1(=O)=O` (stereo not shown) [Compound 169, 2-(3-(3,6-Difluoro-9H-carbazol-9-yl)-2-hydroxypropyl)-6-methyl-1,2,6-thiadiazinane-1,1-dioxide]: 504 nM.
On to `COC1CN(CC(C)(O)Cn2c3ccc(F)cc3c3cc(F)ccc32)S(=O)(=O)C1` (stereo not shown) [Compound 182, 2-(3-(3,6-Difluoro-9H-carbazol-9-yl)-2-hydroxy-2-methylpropyl)-4-methoxyisothiazolidine-1,1-dioxide], for which a half-maximal response (EC50) required 241 nM.
With `CCCN(CC(O)Cn1c2cc(F)ccc2c2ccc(F)cc21)S(C)(=O)=O` (stereo not shown) [Compound 157, N-(3-(2,7-Difluoro-9H-carbazol-9-yl)-2-hydroxypropyl)-N-propylmethanesulfonamide] the figure was 895 nM.
With `O=S1(=O)N(CC(O)Cn2c3ccc(F)cc3c3cc(F)ccc32)CCN1C1CCCC1` (stereo not shown) [Compound 231] the figure was 1500 nM; with `COCCCS(=O)(=O)N(Cc1ccco1)CC(O)Cn1c2ccccc2c2ccccc21` (stereo not shown) [Compound 9, N-(3-(9H-Carbazol-9-yl)-2-hydroxypropyl)-N-(furan-2-ylmethyl)-3-methoxypropane-1-sulfonamide], 2860 nM.
Next, `CN1CCN(CC(C)(O)Cn2c3ccc(F)cc3c3cc(F)ccc32)S1(=O)=O` (stereo not shown) [Compound 174]: 80 nM; `CCCOc1ccc(N(CC(O)Cn2c3ccc(F)cc3c3cc(F)ccc32)S(C)(=O)=O)cc1` (stereo not shown) [Compound 203, N-(3-(3,6-Difluoro-9H-carbazol-9-yl)-2-hydroxypropyl)-N-(4-propoxyphenyl)methanesulfonamide]: 1770 nM; `CC1(N(CC(O)Cn2c3ccc(F)cc3c3cc(F)ccc32)S(C)(=O)=O)CCC1` (stereo not shown) [Compound 186, N-(3-(3,6-Difluoro-9H-carbazol-9-yl)-2-hydroxypropyl)-N-(1-methylcyclobutyl)methanesulfonamide]: 83 nM.
With `O=S(=O)(Cc1ccccc1)N(Cc1ccco1)CC(O)Cn1c2ccccc2c2ccccc21` (stereo not shown) [Compound 14, N-(3-(9H-Carbazol-9-yl)-2-hydroxypropyl)-N-(furan-2-ylmethyl)-1-phenylmethanesulfonamide], the EC50 worked out at 652 nM.
Next, `CC(C)c1ccc(N(CC(O)Cn2c3ccc(F)cc3c3cc(F)ccc32)S(C)(=O)=O)cc1` (stereo not shown) [Compound 205, N-(3-(3,6-Difluoro-9H-carbazol-9-yl)-2-hydroxypropyl)-N-(4-isopropylphenyl)methanesulfonamide]: 1210 nM; `CS(=O)(=O)N(CC(O)Cn1c2ccccc2c2ccccc21)c1ccc2sccc2c1` (stereo not shown) [Compound 65, N-(3-(9H-Carbazol-9-yl)-2-hydroxypropyl)-N-(benzo[b]thiophen-5-yl)methanesulfonamide]: 9500 nM.
Next, `CS(=O)(=O)NCC(O)Cn1c2cc(F)ccc2c2ccc(F)cc21` (stereo not shown) [Compound 162, N-(3-(2,7-Difluoro-9H-carbazol-9-yl)-2-hydroxypropyl)methanesulfonamide]: 1990 nM; `CC(O)(CNS(C)(=O)=O)Cn1c2ccc(F)cc2c2cc(F)ccc21` (stereo not shown) [Compound 152, N-(3-(3,6-Difluoro-9H-carbazol-9-yl)-2-hydroxy-2-methylpropyl)methanesulfonamide]: 1910 nM.
In turn, `Cn1ccc2ccc(N(CC(O)Cn3c4ccccc4c4ccccc43)S(C)(=O)=O)cc21` (stereo not shown) [Compound 66, N-(3-(9H-Carbazol-9-yl)-2-hydroxypropyl)-N-(1-methyl-1H-indol-6-yl)methanesulfonamide] displayed a concentration giving a half-maximal response (EC50) of 9900 nM.
Next, `CC1CN(CC(O)Cn2c3ccc(F)cc3c3cc(F)ccc32)S(=O)(=O)C1` (stereo not shown) [Compound 194, 2-(3-(3,6-Difluoro-9H-carbazol-9-yl)-2-hydroxypropyl)-4-methylisothiazolidine-1,1-dioxide]: 78 nM; `COC1CCCC(N(CC(O)Cn2c3ccccc3c3ccccc32)S(C)(=O)=O)C1` (stereo not shown) [Compound 139, N-(3-(9H-Carbazol-9-yl)-2-hydroxypropyl)-N-(3-methoxycyclohexyl)methanesulfonamide]: 263 nM.
With `CS(=O)(=O)N(CC(O)Cn1c2ccccc2c2ccccc21)c1cccc(C(N)=O)c1` (stereo not shown) [Compound 74, 3-(N-(3-(9H-Carbazol-9-yl)-2-hydroxypropyl)methylsulfonamido)benzamide] the figure was 7620 nM; with `O=S1(=O)C(F)CCN1CC(O)Cn1c2ccccc2c2ccccc21` (stereo not shown) [Compound 120, 2-(3-(9H-Carbazol-9-yl)-2-hydroxypropyl)-5-fluoro-isothiazolidine-1,1-dioxide], 23 nM; with `CCc1ccc(N(CC(O)Cn2c3ccc(F)cc3c3cc(F)ccc32)S(C)(=O)=O)cc1` (stereo not shown) [Compound 201, N-(3-(3,6-Difluoro-9H-carbazol-9-yl)-2-hydroxypropyl)-N-(4-ethylphenyl)methanesulfonamide], 1570 nM.
Next, `CS(=O)(=O)N(Cc1ccco1)CC(O)Cn1c2ccccc2c2cccc(F)c21` (stereo not shown) [Compound 236, N-(3-(1-Fluoro-9H-carbazol-9-yl)-2-hydroxypropyl)-N-(furan-2-ylmethyl)methanesulfonamide]: 620 nM; `CS(=O)(=O)N(CC(O)Cn1c2ccccc2c2ccccc21)C1CCC(F)(F)CC1` (stereo not shown) [Compound 128, N-(3-(9H-Carbazol-9-yl)-2-hydroxypropyl)-N-(4,4-difluorocyclohexyl)methanesulfonamide]: 372 nM.

By EC50 is commonly meant the concentration at which the effect is half-maximal. High values mean a less potent agent, low ones a more potent agent.
